This is an account of results in patent US9655887B2, “Pharmaceutical composition and the use thereof, and application regime of said pharmaceutical composition for on-demand contraception” (BAYER PHARMA AKTIENGESELLSCHAFT, priority 2013, dated 2017).

Marks after values point to notes of the source that are not given here. Some results are limits rather than exact numbers.

The subject of test [1] is fertilizability of ovulated cumulus-oocyte complexes. Description: In-vivo action on post-ovulatory in-vitro fertilization. Also on record: species or system mice (strain: B6D2F1). The settings on record: 1-10 mg/kg s.c. From the text: 4.3 In-Vivo Action on Post-Ovulatory In-Vitro Fertilization:
Substances can exert an influence on fertility by decreasing the fertilizability of oocytes or cumulus-oocyte complexes. In order to study such effects, substances can be administered in vivo and subjected to in vitro fertilization after ovulation of cumulus-oocyte complexes has taken place. The in-vitro fertilization rate, where no test substance is any longer present, allows conclusions as to the in-vivo effects of the test substances.
Immature female mice (strain: B6D2F1, Charles River, Suelzfeld, age: 19-25 days) were kept in Macrolon cages in rooms with controlled illumination (12 hrs darkness: 12 hrs light), fed with a standard diet and provided with drinking water ad libitum.
The mice were primed with PMSG (pregnant mare serum gonadotropin) (10 IU/animal i.p.). After 48 hours, a stimulus triggering ovulation was created in the animals by one administration of 10 IU/animal i.p. (hCG, human chorionic gonadotropin). The test substances were dissolved in benzyl benzoate/castor oil (1+4 v/v) and administered in a volume of 0.1 ml s.c. 1 hour before hCG (n=5 animals per group). Fourteen hours after hCG administration, the animals were killed. […] Twenty-four hours after the incubation with the sperms, the number of fertilized oocytes is established and the percentage fertilization rate determined

The test system of test [2] is fertilizability of oocytes or cumulus-oocyte complexes. Kind of test: In-vivo effect on postovulatory in-vitro fertilization in the mouse (2-cell embryos). Also on record: species or system mice (strain: B6D2F1). The note with it: vehicle 36.3 ± 9.5. From the text:
7. In-Vivo Effect on Postovulatory In-Vitro Fertilization in the Mouse
Substances can influence fertility by lowering fertilizability of oocytes or cumulus-oocyte complexes. To examine such effects, substances can be administered in vivo and, after ovulation of cumulus-oocyte complexes, the latter are subjected to in-vitro fertilization. The in-vitro fertilization rate in the absence of test substance allows conclusions to be drawn on the in-vivo effects of the test substances.
Immature female mice (strain: B6D2F1, Charles River, Suelzfeld, age: 19-25 days) were kept in Makrolon cages in rooms with controlled lighting (12 hours of darkness: 12 hours of light), fed with a standard diet and provided with water ad libitum.
The mice were primed with PMSG (Pregnant Mare Serum Gonadotropin) (10 IU/animal i.p.). After 48 hours, by administration of 10 IU/animal i.p., an ovulation-triggering stimulus (hCG, human Chorion Gonadotropin) was generated in the animals. EP2 receptor antagonists were dissolved in benzyl benzoate/castor oil (1+4 v/v) and administered in a volume of 0.1 ml s.c. 1 hour prior to hCG (n=5 animals per group). The COX inhibitor was suspended in a carrier liquid (85 mg of Myrj®53 polyoxyl(50)stearate; CAS No. 9004-99-3) in 100 ml of 0.9% w/v NaCl solution), and the appropriate dose was administered in a volume of 2 ml/kg of body weight orally 1 hour prior to hCG. Fourteen hours after administration of hCG, the animals were sacrificed. Ovulated oocytes and cumulus-oocyte complexes were obtained from the ovarii bursa and/or the oviduct and subjected to in-vitro fertilization, with a sperm number of 40 000 sperms/0.5 ml for 1 hour being used for fertilization. Twenty-four hours after incubation with the sperms, the number of fertilized oocytes and the number of 2-cell embryos per animal were determined.

The target of test [3] is EP2 subtype of the human PGE2 receptor (hEP2 receptor) (Homo sapiens, UniProt P43116). Kind of test: cAMP antagonism test, human prostaglandin E2 (subtype EP2) receptor signal. The test is classed as cell-based. An outline of the steps:
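Cells (625000 cells/ml, mixed with cAMP-d2) were preincubated 20 min at RT with compound ([…]). They were then stimulated 60 min at RT with a 3× PGE2 solution (1.5 nM) in PBS-IBMX and lysed for 20 min. cAMP was read by HTRF as the 665/620 nm ratio ×10000, with antagonism seen as a rise in FRET signal.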

For another test, the system named is ovulation. The settings on record: cited from earlier work.
The test system of test [4] is fertility of the female rat. Kind of test: Single administration of EP2 receptor antagonists and COX inhibitors alone or in combination, fertility of the rat (implantation sites). It is filed as in vivo, female Han Wistar rats. The protocol:
6. Effect of a Single Administration of EP2 Receptor Antagonists and COX Inhibitors Alone or in Combination on the Fertility of the Rat
In the experiments below, female Han Wistar rats having a weight of 200-270 g were used. The animals were kept in Makrolon cages in rooms with controlled lighting (12 hours of darkness; 12 hours of light), fed with a standard diet and provided with water ad libitum.
EP2 receptor antagonists were dissolved in benzyl benzoate/castor oil (1+4 v/v), and the dose was administered in a volume of 1 ml/kg of body weight s.c. Optionally, EP2 receptor antagonists were also administered orally in the same vehicle as the COX inhibitors (see below). […]
The COX inhibitors were suspended in a carrier liquid (85 mg of Myrj®53 polyoxyl(50)stearate; CAS No. 9004-99-3) in 100 ml of 0.9% w/v NaCl solution), and the dose corresponding to the treatment group was administered in a volume of 2 ml/kg of body weight.
Prior to the start of the experiment, two cycles were observed using vaginal swabs. Only animals having a regular 4-day cycle were used in the experiment. The animals were randomized to the treatment groups.
The animals were treated once in the proestrus, the day in the cycle when the LH peak occurs in the evening, with the test substances either alone or in combination. On the evening of the proestrus, the female animals mated with a male rat. Successive mating was confirmed by detection of vaginal sperms in the vaginal swab the next morning. The effect on fertility was determined 9-15 days after mating by the number of implantation sites of the animals. […]

Setting [5] is: single administration in proestrus, Indomethacin 1 mg/animal, 16:00.
Setting [6] is: Table 6.3, proestrus, Piroxicam 2 mg/animal, 12:30.
Setting [7] is: single administration in proestrus, Piroxicam 2 mg/animal, 7:00.
[8] abbreviates: single administration in proestrus, Piroxicam 2 mg/animal, 13:00.
The mark [9] stands for this setting: single administration in proestrus, Piroxicam 2 mg/animal, 18:00, data of n = 5 animals.

Sequence of EP2 subtype of the human PGE2 receptor (hEP2 receptor) (P43116 whole entry): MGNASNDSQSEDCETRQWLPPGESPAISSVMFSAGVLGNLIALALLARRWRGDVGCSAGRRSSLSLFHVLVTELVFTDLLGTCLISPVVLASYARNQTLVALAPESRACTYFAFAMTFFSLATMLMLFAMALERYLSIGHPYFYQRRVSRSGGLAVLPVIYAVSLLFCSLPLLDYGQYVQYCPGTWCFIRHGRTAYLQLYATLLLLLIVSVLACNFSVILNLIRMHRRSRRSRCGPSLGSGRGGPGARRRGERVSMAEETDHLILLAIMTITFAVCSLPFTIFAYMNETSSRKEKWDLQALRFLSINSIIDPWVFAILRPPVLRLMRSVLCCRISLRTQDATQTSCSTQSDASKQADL

As to `COCCNC(=O)c1ccc2nn(CC3CCN(C(=O)c4ccc(Oc5ccc(C(F)(F)F)cc5)cc4)CC3)cc2c1C` [Example 17, N-(2-methoxyethyl)-4-methyl-2-[(1-{4-[4-(trifluoromethyl)phenoxy]benzoyl}piperidin-4-yl)methyl]-2H-indazole-5-carboxamide], the “influence on the fertilizability of ovulated cumulus-oocyte complexes” value in test [1] was “dose-dependent influence on the fertilizability of ovulated cumulus-oocyte complexes”.

`Cc1c(C(=O)NCC(F)(F)F)ccc2nn(CC3CCN(C(=O)c4ccc(Oc5ccc(C(F)(F)F)cc5)cc4)CC3)cc12` [Example E126, 4-methyl-N-(2,2,2-trifluoroethyl)-2-[(1-{4-[4-(trifluoromethyl)phenoxy]benzoyl}piperidin-4-yl)methyl]-2H-indazole-5-carboxamide]: the “2-Cell embryos per animal (mean ± SD)” value is on record as 30.8 ± 7.3 in test [2] (E126 0.1 mg/animal s.c. 1 hour prior to hCG) and 12.6 ± 3.6 in test [2] (E126 0.5 mg/animal s.c. 1 hour prior to hCG). For the same compound, the IC50 in test [3] is greater than 50 nM.

As to `COc1ccc2c(c1)c(CC(=O)O)c(C)n2C(=O)c1ccc(Cl)cc1` [Indomethacin, indomethacin, reference compound], the effect on ovulation result in the test with ovulation (2×100 mg per day over 5 days (Killick and Elstein 1987)) is “inhibition of ovulation”. The delay of ovulation in the test with ovulation (3×50 mg per day for at least 3 days, 6 women, in 5 cases (Athanasious et al.)) is 2 to 12 days. Moreover, in test [4] (setting [5]), the “Absolute implantations number of 6 animals” value was determined as 67 and the “Implantations per animal (mean ± SD)” value is reported as 11.2 ± 2.9.

Regarding `CN1C(C(=O)Nc2ccccn2)=C(O)c2ccccc2S1(=O)=O` [Piroxicam, piroxicam, reference compound], the “2-Cell embryos per animal (mean ± SD)” value in test [2] (Piroxicam 0.1 mg/animal orally 1 hour prior to hCG) stood at 10.8 ± 3.8. In addition, the “Absolute implantations number of 6 animals” value in test [4] (setting [6]) was 71; in test [4] (setting [7]), 81; in test [4] (setting [8]), 68; in test [4] (setting [9]), 53*. Also, the “Implantations per animal (mean ± SD)” value in test [4] (setting [6]) was found to be 11.8 ± 3.7; in test [4] (setting [7]) it was 13.5 ± 1.0; in test [4] (setting [8]), 11.3 ± 1.6; in test [4] (setting [9]), 10.6 ± 1.5.

As usually defined, the IC50 is the concentration needed to halve the response being measured. High values mean weaker potency in that assay, low ones greater potency in that assay.
